Measured values published in PMC6263802 (Journal of natural products, 2018).
Read-outs that look alike come from different tables or passages of the source.

Experiments:
hAChE = hAChE (Homo sapiens, UniProt P22303); test: Inhibition of human acetylcholinesterase with acetylthiocholine; type: biochemical; conditions: for inhibition at 10 µM: read-out: hAChE % Inhibition at 10μM
hBChE = hBChE (Homo sapiens, UniProt P06276); test: Inhibition of human butyrylcholinesterase with butyrylthiocholine; type: biochemical; conditions: for inhibition at 10 µM: read-out: hBChE % Inhibition at 10μM
hBChE, sequence (P06276 29-602): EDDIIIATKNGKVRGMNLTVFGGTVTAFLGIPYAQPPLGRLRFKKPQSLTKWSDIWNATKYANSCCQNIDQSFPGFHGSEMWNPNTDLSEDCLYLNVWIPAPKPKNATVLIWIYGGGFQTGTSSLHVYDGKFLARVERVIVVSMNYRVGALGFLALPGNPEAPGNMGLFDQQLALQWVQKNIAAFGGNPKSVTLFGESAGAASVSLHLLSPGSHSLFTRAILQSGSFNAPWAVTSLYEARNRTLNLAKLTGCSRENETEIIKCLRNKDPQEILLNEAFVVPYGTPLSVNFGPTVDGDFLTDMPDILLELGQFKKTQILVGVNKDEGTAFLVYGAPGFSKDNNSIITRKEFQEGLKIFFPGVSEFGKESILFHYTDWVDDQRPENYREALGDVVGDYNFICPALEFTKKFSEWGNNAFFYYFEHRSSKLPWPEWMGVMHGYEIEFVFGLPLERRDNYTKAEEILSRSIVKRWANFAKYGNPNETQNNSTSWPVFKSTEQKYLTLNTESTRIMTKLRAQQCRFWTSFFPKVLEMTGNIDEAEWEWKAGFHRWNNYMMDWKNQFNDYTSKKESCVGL

[1] = target: T1, hCE1 (human liver CE; CES1) (Homo sapiens, UniProt P23141); test: Inhibition of hCE1 with o-nitrophenyl acetate; type: biochemical; conditions: for hCE1 (o-NPA) Fold increase in potency: compared to the parent tanshinone
T1 sequence (P23141 18-563 limits assumed): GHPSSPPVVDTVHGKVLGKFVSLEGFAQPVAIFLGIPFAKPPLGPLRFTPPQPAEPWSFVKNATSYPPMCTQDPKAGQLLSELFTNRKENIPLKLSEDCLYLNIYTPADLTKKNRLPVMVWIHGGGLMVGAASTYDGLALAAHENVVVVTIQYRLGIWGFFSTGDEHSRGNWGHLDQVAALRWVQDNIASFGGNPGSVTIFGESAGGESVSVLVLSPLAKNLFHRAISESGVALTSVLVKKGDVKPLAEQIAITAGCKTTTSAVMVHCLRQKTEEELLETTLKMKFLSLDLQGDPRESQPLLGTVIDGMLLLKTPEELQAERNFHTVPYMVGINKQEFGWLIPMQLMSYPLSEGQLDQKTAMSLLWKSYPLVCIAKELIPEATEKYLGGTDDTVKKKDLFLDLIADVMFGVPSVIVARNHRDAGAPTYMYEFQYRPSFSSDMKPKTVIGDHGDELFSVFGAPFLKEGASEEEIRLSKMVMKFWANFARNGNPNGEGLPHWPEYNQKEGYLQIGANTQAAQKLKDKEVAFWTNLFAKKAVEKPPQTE

[2] = target: T2, hiCE (human intestinal CE; CES2) (Homo sapiens, UniProt O00748); test: Inhibition of hiCE with o-NPA as substrate, spectrophotometric assay; type: biochemical; conditions: compared to the parent tanshinone
T2 sequence (O00748 27-555 limits assumed): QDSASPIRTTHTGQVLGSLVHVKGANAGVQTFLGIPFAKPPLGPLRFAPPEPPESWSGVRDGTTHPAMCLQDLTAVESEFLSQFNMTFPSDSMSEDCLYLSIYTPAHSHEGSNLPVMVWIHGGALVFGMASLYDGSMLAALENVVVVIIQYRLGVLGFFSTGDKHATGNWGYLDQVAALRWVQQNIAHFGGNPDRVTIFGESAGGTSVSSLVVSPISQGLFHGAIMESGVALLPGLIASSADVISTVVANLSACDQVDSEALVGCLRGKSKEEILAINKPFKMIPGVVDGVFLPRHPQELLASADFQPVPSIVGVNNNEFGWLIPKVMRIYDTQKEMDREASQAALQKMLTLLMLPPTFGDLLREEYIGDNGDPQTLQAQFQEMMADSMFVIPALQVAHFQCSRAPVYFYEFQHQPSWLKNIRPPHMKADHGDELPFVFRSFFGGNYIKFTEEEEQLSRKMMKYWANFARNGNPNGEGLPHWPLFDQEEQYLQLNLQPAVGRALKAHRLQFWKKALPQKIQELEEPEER

hCE1 [3] = target: T3, hCE1 (Homo sapiens, UniProt P23141); type: biochemical; conditions: after pre-incubation and removal of the small molecule
T3 sequence (P23141 18-563 limits assumed): T1 sequence (P23141 18-563 limits assumed)

hiCE = target: T4, hiCE (Homo sapiens, UniProt O00748); type: biochemical; conditions: after pre-incubation and removal of the small molecule
T4 sequence (O00748 27-555 limits assumed): T2 sequence (O00748 27-555 limits assumed)

[4] = system: U373MG cells expressing hCE1; test: Intracellular inhibition of oseltamivir hydrolysis; type: cell-based, human; conditions: 10μM inhibitor 10 min, then oseltamivir 20μM 30 min; versus DMSO
hCE1 [5] = target: T3, hCE1; test: MS analysis of hCE1 protein after incubation with small molecules; conditions: for Increase in mass of hCE1 after incubation: all three enzyme species, 4 at 10μM
[6] = target: T1, hCE1 (human liver CE; CES1); conditions: read-out: hCE1 (o-NPA) Ki ± SE; parent tanshinones, previously reported; cited from earlier work
[7] = hCE1 species of 61374 Da (first glycoform)
[8] = hCE1 species of 61537 Da (second glycoform)
[9] = hCE1 species of 61698 Da (third glycoform)

hAChE, sequence (P22303 32-614): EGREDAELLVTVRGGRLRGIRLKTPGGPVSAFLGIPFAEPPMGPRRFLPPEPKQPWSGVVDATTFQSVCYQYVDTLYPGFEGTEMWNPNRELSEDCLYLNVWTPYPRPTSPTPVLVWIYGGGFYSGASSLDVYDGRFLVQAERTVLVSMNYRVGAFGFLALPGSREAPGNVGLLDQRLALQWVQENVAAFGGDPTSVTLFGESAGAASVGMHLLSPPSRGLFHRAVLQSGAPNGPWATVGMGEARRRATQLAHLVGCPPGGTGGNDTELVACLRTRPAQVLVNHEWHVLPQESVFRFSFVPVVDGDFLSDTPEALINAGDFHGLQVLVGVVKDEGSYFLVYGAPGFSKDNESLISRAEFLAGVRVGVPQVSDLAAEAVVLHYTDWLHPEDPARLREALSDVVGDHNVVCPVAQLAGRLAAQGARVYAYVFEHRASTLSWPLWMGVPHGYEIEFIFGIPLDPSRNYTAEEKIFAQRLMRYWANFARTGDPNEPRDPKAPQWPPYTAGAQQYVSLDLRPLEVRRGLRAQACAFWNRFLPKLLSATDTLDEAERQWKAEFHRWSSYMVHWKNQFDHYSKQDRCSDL

SMILES	IC50 (hAChE)	inhibition at 10 µM (hAChE)	IC50 (hBChE)	inhibition at 10 µM (hBChE)	hCE1 (o-NPA) Fold increase in potency [1]	hiCE (o-NPA) Fold increase in potency [2]	Irreversibility of hCE1 inhibition (hCE1 [3])	Irreversibility of hiCE inhibition (hiCE)	Reduction in oseltamivir hydrolysis (oseltamivir carboxylate formed) [4]	also measured
Cc1coc2c1C(=O)C(=O)c1c-2ccc2c(C)cccc12 [Compound 1, Tanshinone I]	> 10 µM	10%	> 10 µM	6%						
Cc1cccc2c1ccc1c3occ(C)c3c(=O)oc(=O)c21 [Compound 2, 4,9-dimethylfuro[3,2-c]naphtho[2,1-e]oxepine-1,3-dione]					10,937 fold	17,744 fold	irreversible inhibition	irreversible inhibition	more than 70%	
Cc1coc2c1C(=O)C(=O)c1c-2ccc2c1CCCC2(C)C [Compound 3, Tanshinone IIA]	> 10 µM	4%	> 10 µM	1%						
Cc1coc2c1c(=O)oc(=O)c1c3c(ccc12)C(C)(C)CCC3 [Compound 4, 4,9,9-trimethyl-9,10,11,12-tetrahydrofuro[3,2-c]naphtho[2,1-e]oxepine-1,3-dione]					3,626 fold	1,750 fold	irreversible inhibition	irreversible inhibition	more than 70%	IC50 [1]: 0.00106 µM; Irreversibility of hCE1 inhibition (hCE1 [3]; listed as A): irreversible enzyme inhibition; Irreversibility of hiCE inhibition (hiCE; listed as A): irreversible enzyme inhibition; Increase in mass of hCE1 after incubation (hCE1 [5]): 308–312 Da; Observed mass of adduct (hCE1 [5]; [7]): 312 Da; Observed mass of adduct (hCE1 [5]; [8]): 308 Da; Observed mass of adduct (hCE1 [5]; [9]): 309.8 Da
Cc1cccc2c3c(ccc12)C1=C(C(=O)C3=O)[C@@H](C)CO1 [Compound 5, Dihydro-tanshinone]										hAChE % Inhibition at 10μM (hAChE; 10μM inhibitor): 84%; IC50 (hAChE; read-out: hAChE IC50 ± SE, ATCh substrate): 1.95 µM; hBChE % Inhibition at 10μM (hBChE; 10μM inhibitor): 5%; IC50 (hBChE; read-out: hBChE IC50 ± SE, BTCh substrate): > 10 µM; Ki [6]: 0.398 ± 0.066 µM
Cc1cccc2c1ccc1c3c(c(=O)oc(=O)c12)[C@@H](C)CO3 [Compound 6, 4,9-dimethyl-4,5-dihydrofuro[3,2-c]naphtho[2,1-e]oxepine-1,3-dione]					111 fold	193 fold	irreversible inhibition	irreversible inhibition		Observed mass of adduct (hCE1 [5]; [7]): 288 Da; Observed mass of adduct (hCE1 [5]; [8]): 289 Da; Observed mass of adduct (hCE1 [5]; [9]): 282 Da
C[C@H]1COC2=C1C(=O)C(=O)c1c2ccc2c1CCCC2(C)C [Compound 7, Crypto-tanshinone]	6.41 µM	44%	> 10 µM	1%						
C[C@H]1COc2c1c(=O)oc(=O)c1c3c(ccc21)C(C)(C)CCC3 [Compound 8, 4,9,9-trimethyl-4,5,9,10,11,12-hexahydrofuro[3,2-c]naphtho[2,1-e]oxepine-1,3-dione]					194 fold	188 fold	irreversible inhibition	irreversible inhibition	more than 70%	IC50 [1]: 0.00133 µM; Irreversibility of hCE1 inhibition (hCE1 [3]; listed as B): irreversible enzyme inhibition; Irreversibility of hiCE inhibition (hiCE; listed as B): irreversible enzyme inhibition
O=S(=O)(F)Cc1ccccc1 [PMSF, phenylmethanesulfonyl fluoride, reference compound]										Increase in mass of hCE1 after incubation (hCE1 [5]): 154–157 Da
